Like-named read-outs stand apart in the source and are kept apart here. Some results are limits rather than exact numbers.

In one assay the test system is CHO cells (cell line A). The settings on record: fresh Medium A supplemented with formate at 0, 2, 4 and 6 mM, growth monitored for 5 or 6 days, FIG. 3B. The protocol: CHO cells (cell line A or cell line B) producing a recombinant antibody were inoculated at low cell densities (0.1 E6 cells/mL) in various conditions in triplicates in 6-well plate cultures. The working volume for each well on day 0 was 4 mL. Cell line A was inoculated either in fresh Medium A or fresh Medium A supplemented with formate at various concentrations. Cell line B was inoculated either in fresh Medium A or fresh Medium A supplemented with glycerol at various concentrations. The concentrations tested for formate were [0, 2, 4 and 6 mM] and for glycerol were [0, 2 and 4 mM]. The 6-well plates were incubated on a shaking platform in 36.5C and 5% carbon dioxide. Cell growth in all the conditions was monitored for 5 or 6 days.

The next assay concerns CHO cells (cell line B). In words: Effect of glycerol on growth (viable cell density) of CHO cells in 6-well plate culture. Conditions: fresh Medium A supplemented with glycerol at 0, 2 and 4 mM, growth monitored for 5 or 6 days, FIG. 3A. The class given is cell-based, Chinese hamster.

Regarding `O=CO` [formate], the results for the “concentration at which cell growth was suppressed” value with CHO cells (cell line A) and in the assay on CHO cells (cell line A) (listed as Formate) were “higher than 2 mM” and at least 2 mM, respectively.

As to `OCC(O)CO` [glycerol], the “concentration at which cell growth was suppressed” value was “higher than 2 mM” with CHO cells (cell line B) and at least 2 mM in the assay with CHO cells (cell line B) (listed as Glycerol).

Source of the values: US20220073942A1, “Cells with reduced inhibitor production and methods of use thereof” (PFIZER INC., priority 2018, published 2022).
